For data set [1] the following is noted: for 10′ Gel / Viscosity (cps) at 3 rpm / YP: after hot rolled at 150° F., about 10 ppb inhibitor in tap water; for shale inhibiting characteristics: summary of Tables 6-9.
Method: This test procedure uses pint jars that are filled with one barrel equivalent of tap water and about 10 ppb of a shale inhibitor. Tap water was used as a control sample. […] After stirring the samples for about 30 minutes, the rheologies were measured and then the samples were heat aged overnight at about 150° F. After the samples were cooled the rheologies were measured and recorded. This procedure was carried out for each sample until all of the samples were too thick to measure.
Another data set relates to luminescent bacteria. Conditions: for EC50 (15): reduces light emission by 50% at 15 minutes at 15° C.; for toxicity results: summary of Tables 6-9.

Where two headings read alike, the source gives them in different places.

As to “Triethylamine Dimethyl Sulfate [A (Triethylamine Dimethyl Sulfate)]”, in data set [1] (50 ppb Bentonite), the “10′ Gel” value came out at 3, the “Viscosity (cps) at 3 rpm” value was found to be 2 cps and the YP stood at 4. Further, in data set [1] (60 ppb Bentonite), the “10′ Gel” value is given as 4, the “Viscosity (cps) at 3 rpm” value is on record as 3 cps and the YP came to 4. Further, in data set [1] (70 ppb Bentonite), the “10′ Gel” value came to 17, the “Viscosity (cps) at 3 rpm” value worked out at 12 cps and the YP came to 48. In addition, in data set [1], the shale inhibiting characteristics entry is recorded as “good”. Moreover, in the data set with luminescent bacteria, the “EC50 (15)” value is recorded as 92.16% and the toxicity results is on record as “good”.

As to Triethylamine Diethyl Sulfate, in data set [1] (50 ppb Bentonite), the “10′ Gel” value is listed as 7, the “Viscosity (cps) at 3 rpm” value is given as 4 cps and the YP stood at 6. Moreover, in data set [1] (60 ppb Bentonite), the “10′ Gel” value came to 9, the “Viscosity (cps) at 3 rpm” value was determined as 4 cps and the YP was found to be 8. Moreover, in data set [1] (70 ppb Bentonite), the “10′ Gel” value is recorded as 14, the “Viscosity (cps) at 3 rpm” value worked out at 8 cps and the YP was determined as 45. For the same compound, the shale inhibiting characteristics result in data set [1] is reported as “good”. Also, in the data set with luminescent bacteria, the “EC50 (15)” value was found to be 100% and the toxicity results was “good”.

With `[Cl-].[K+]` [Potassium Chloride, reference compound], the “10′ Gel” value in data set [1] (50 ppb Bentonite) worked out at 26; in data set [1] (60 ppb Bentonite) it was 63; in data set [1] (70 ppb Bentonite) it was 300. Also, the entries for the “Viscosity (cps) at 3 rpm” value in data set [1] (50 ppb Bentonite), in data set [1] (60 ppb Bentonite) and in data set [1] (70 ppb Bentonite) were 12 cps, 48 cps and 143 cps, respectively. Moreover, the figures for the YP in data set [1] (50 ppb Bentonite), in data set [1] (60 ppb Bentonite) and in data set [1] (70 ppb Bentonite) were 9, 45 and 136, respectively.

These data come from patent US8298996B2, “Low toxicity shale hydration inhibition agent and method of use” (M-I L.L.C., priority 2007, dated 2012).
